Reference: PubChem BioAssay (NCI)
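Compound exposure: 48 hours, 5 concentrations, 96-well plates. At the TGI there is no net growth.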

Tests used:
Experiment in all cases: DTP human tumour cell line panel, 48 h
OVCAR-8 ovarian = test system: OVCAR-8 ovarian
RXF 393 renal = test system: RXF 393 renal
PC-3 prostate = test system: PC-3 prostate
HS 578T breast = test system: HS 578T breast
SF-268 CNS = test system: SF-268 CNS
SF-539 CNS = test system: SF-539 CNS
NCI/ADR-RES ovarian = test system: NCI/ADR-RES ovarian
U251 CNS = test system: U251 CNS
CCRF-CEM leukemia = test system: CCRF-CEM leukemia
A549 NSCLC = test system: A549 NSCLC
HOP-92 NSCLC = test system: HOP-92 NSCLC
HL-60(TB) leukemia = test system: HL-60(TB) leukemia
SW-620 colon = test system: SW-620 colon
IGROV1 ovarian = test system: IGROV1 ovarian
T-47D breast = test system: T-47D breast
SR leukemia = test system: SR leukemia
MALME-3M melanoma = test system: MALME-3M melanoma
LOX IMVI melanoma = test system: LOX IMVI melanoma
UACC-257 melanoma = test system: UACC-257 melanoma
MDA-MB-435 = test system: MDA-MB-435
786-0 renal = test system: 786-0 renal
HCT-116 colon = test system: HCT-116 colon
SNB-75 CNS = test system: SNB-75 CNS
SK-OV-3 ovarian = test system: SK-OV-3 ovarian
OVCAR-3 ovarian = test system: OVCAR-3 ovarian
SK-MEL-5 melanoma = test system: SK-MEL-5 melanoma
MDA-N = test system: MDA-N
KM12 colon = test system: KM12 colon
SK-MEL-2 melanoma = test system: SK-MEL-2 melanoma
SF-295 CNS = test system: SF-295 CNS
MCF7 breast = test system: MCF7 breast
SNB-19 CNS = test system: SNB-19 CNS
SK-MEL-28 melanoma = test system: SK-MEL-28 melanoma
HT29 colon = test system: HT29 colon
COLO 205 colon = test system: COLO 205 colon
A498 renal = test system: A498 renal
NCI-H460 lung = test system: NCI-H460 lung
EKVX NSCLC = test system: EKVX NSCLC
NCI-H23 lung = test system: NCI-H23 lung
RPMI-8226 leukemia = test system: RPMI-8226 leukemia
SN12C renal = test system: SN12C renal
MOLT-4 leukemia = test system: MOLT-4 leukemia
MDA-MB-231 breast = test system: MDA-MB-231 breast
M14 melanoma = test system: M14 melanoma
BT-549 breast = test system: BT-549 breast
TK-10 renal = test system: TK-10 renal
UO-31 renal = test system: UO-31 renal
CAKI-1 renal = test system: CAKI-1 renal
K-562 leukemia = test system: K-562 leukemia
NCI-H522 lung = test system: NCI-H522 lung
HOP-62 NSCLC = test system: HOP-62 NSCLC
HCT-15 colon = test system: HCT-15 colon
ACHN renal = test system: ACHN renal
DU-145 prostate = test system: DU-145 prostate
OVCAR-5 ovarian = test system: OVCAR-5 ovarian
NCI-H226 lung = test system: NCI-H226 lung
OVCAR-4 ovarian = test system: OVCAR-4 ovarian
UACC-62 melanoma = test system: UACC-62 melanoma
HCC-2998 colon = test system: HCC-2998 colon

Measured: TGI

COC(=O)CCC(C)[C@H]1CCC2C3C(C[C@H](OC(C)=O)[C@@]21C)[C@@]1(C)CCC2(C[C@H]1C[C@H]3OC(C)=O)OOC1(CCCCCCC1)OO2 (some centres not stated)
52.7 µM: HOP-62 NSCLC
6.21 µM: RPMI-8226 leukemia
50 µM: NCI-H226 lung
> 100 µM: OVCAR-8 ovarian | RXF 393 renal | PC-3 prostate | HS 578T breast | SF-268 CNS | SF-539 CNS | NCI/ADR-RES ovarian | U251 CNS | CCRF-CEM leukemia | A549 NSCLC | HOP-92 NSCLC | HL-60(TB) leukemia | SW-620 colon | IGROV1 ovarian | T-47D breast | SR leukemia | MALME-3M melanoma | LOX IMVI melanoma | UACC-257 melanoma | MDA-MB-435 | 786-0 renal | HCT-116 colon | SNB-75 CNS | SK-OV-3 ovarian | OVCAR-3 ovarian | SK-MEL-5 melanoma | MDA-N | KM12 colon | SK-MEL-2 melanoma | SF-295 CNS | MCF7 breast | SNB-19 CNS | SK-MEL-28 melanoma | HT29 colon | COLO 205 colon | A498 renal | NCI-H460 lung | EKVX NSCLC | NCI-H23 lung | SN12C renal | MOLT-4 leukemia | MDA-MB-231 breast | M14 melanoma | BT-549 breast | TK-10 renal | CAKI-1 renal | K-562 leukemia | NCI-H522 lung | HCT-15 colon | ACHN renal | DU-145 prostate | OVCAR-5 ovarian | OVCAR-4 ovarian
28.8 µM: UO-31 renal

COc1ccc(C2CC(c3ccc4ccccc4c3O)=NN2)cc1OC (configuration not stated)
52.1 µM: K-562 leukemia
> 100 µM: OVCAR-8 ovarian | RXF 393 renal | PC-3 prostate | HS 578T breast | SF-268 CNS | SF-539 CNS | NCI/ADR-RES ovarian | U251 CNS | A549 NSCLC | HOP-92 NSCLC | SW-620 colon | IGROV1 ovarian | T-47D breast | MALME-3M melanoma | UACC-257 melanoma | MDA-MB-435 | UACC-62 melanoma | 786-0 renal | HCT-116 colon | SNB-75 CNS | SK-OV-3 ovarian | OVCAR-3 ovarian | SK-MEL-5 melanoma | KM12 colon | SK-MEL-2 melanoma | SF-295 CNS | MCF7 breast | SK-MEL-28 melanoma | HT29 colon | COLO 205 colon | A498 renal | NCI-H460 lung | HCC-2998 colon | NCI-H23 lung | RPMI-8226 leukemia | SN12C renal | M14 melanoma | TK-10 renal | UO-31 renal | CAKI-1 renal | NCI-H522 lung | HOP-62 NSCLC | HCT-15 colon | ACHN renal | DU-145 prostate | OVCAR-5 ovarian | NCI-H226 lung | OVCAR-4 ovarian
65.4 µM: MOLT-4 leukemia
60.8 µM: MDA-N
46.3 µM: SR leukemia
42.6 µM: CCRF-CEM leukemia
74 µM: BT-549 breast
96 µM: MDA-MB-231 breast
